These results are taken from US9115133B2, “Substituted fused tricyclic compounds, compositions and medicinal applications thereof” (Advinus Therapeutics Limited, priority 2011, dated 2015).

What all share (format): biochemical
Settings in all cases: 200 μg/ml Poly Glu-Tyr (4:1), ATP 1 uM, 90 min room temperature, luminescence

Experiment [1] concerns the target T1, Recombinant JAK1 (Amino acids 850-1154) (Homo sapiens, UniProt P23458).
T1 construct: Recombinant JAK1 (Amino acids 850-1154; NM_002227.2); made in house; host or cells: baculovirus expression system (Bac-to-Bac)
Nature of the experiment: Kinase-Glo Luminescent Kinase Assay, recombinant JAK1. The essentials: (§1)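 Baculovirus-expressed kinase domains were pre-incubated 5 min with compound (1% DMSO), then reacted 90 min at room temperature with 200 μg/ml poly Glu-Tyr (4:1) and 1 uM ATP in 50 mM HEPES pH 7.4, 5 mM MgCl2. Remaining ATP was read by Kinase-Glo luminescence. IC50 came from four-parameter logistic fits.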
Background: In Kinase-Glo more light means more ATP remaining.

In experiment [2] the target is T2, Recombinant JAK3 (Amino acids 781-1124) (Homo sapiens, UniProt P52333).
T2 construct: JAK3 (Amino acids 781-1124; NM_000215.3); made in house; host or cells: baculovirus expression system (Bac-to-Bac)
T2 sequence (P52333 781-1124): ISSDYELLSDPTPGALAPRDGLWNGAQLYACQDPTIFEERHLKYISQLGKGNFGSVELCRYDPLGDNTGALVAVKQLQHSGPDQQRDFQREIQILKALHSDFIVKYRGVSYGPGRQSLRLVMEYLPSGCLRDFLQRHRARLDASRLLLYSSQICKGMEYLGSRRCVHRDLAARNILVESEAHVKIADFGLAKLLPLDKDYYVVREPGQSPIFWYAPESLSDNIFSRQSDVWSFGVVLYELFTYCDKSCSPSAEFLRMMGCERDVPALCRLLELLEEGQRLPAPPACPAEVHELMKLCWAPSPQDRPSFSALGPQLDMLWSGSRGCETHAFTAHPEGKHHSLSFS
Description: Kinase-Glo Luminescent Kinase Assay, recombinant JAK3. The essentials: as §1

Experiment [3] deals with T3, Recombinant JAK2 (Amino acids 808-1132) (Homo sapiens, UniProt O60674).
T3 construct: JAK2 (Amino acids 808-1132; NM_004972.3); made in house; host or cells: baculovirus expression system (Bac-to-Bac)
T3 sequence (O60674 808-1132): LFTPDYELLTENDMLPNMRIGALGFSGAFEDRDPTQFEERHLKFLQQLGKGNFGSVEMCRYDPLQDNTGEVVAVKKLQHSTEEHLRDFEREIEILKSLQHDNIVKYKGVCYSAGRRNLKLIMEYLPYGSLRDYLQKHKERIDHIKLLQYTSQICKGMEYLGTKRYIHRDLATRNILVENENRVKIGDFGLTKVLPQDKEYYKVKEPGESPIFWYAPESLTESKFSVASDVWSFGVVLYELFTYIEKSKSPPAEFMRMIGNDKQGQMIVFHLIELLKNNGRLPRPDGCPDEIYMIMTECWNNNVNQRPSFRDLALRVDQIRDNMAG
Description: Kinase-Glo Luminescent Kinase Assay, recombinant JAK2. The text has this:
Recombinant JAK1 (Amino acids 850-1154; NM_002227.2), JAK2 (Amino acids 808-1132; NM_004972.3) and JAK3 (Amino acids 781-1124; NM_000215.3) used in the studies were expressed using Invitrogen's Bac-to-Bac baculovirus expression system according to manufacturer's instructions. Adenosine 5′-triphosphate was obtained from Sigma Aldrich chemicals (Cat # A7699). Poly Glu-Tyr (4:1) sodium salt was obtained from Sigma Aldrich (Cat # P0275), Kinase Glo® Luminescent Kinase assay kit was obtained from Promega (Cat # V6713) Kinase activity was assessed by Promega Kinase-Glo® Luminescent Kinase Assay kit using 200 μg/ml Poly Glu-Tyr (4:1) as substrate and ATP at 1 uM concentration. The reactions were carried out in 384 well plates in total reaction volume of 20 uL. Reaction mixtures contained 50 mM HEPES pH 7.4, 5 mM MgCl2, 1 mM DTT, 0.01% BSA, 0.01% Tween 20. Kinase was pre-incubated with compounds or 1% DMSO for 5 min before addition of substrate and ATP to check for inhibition. Kinase reactions were carried out at room temperature for 90 min. The reactions were stopped by adding 5 μl of Kinase Glo® reagent & 10 μl of reaction mixture followed by measuring luminescence. The luminescent signal is correlated with the amount of ATP present at the end of kinase reaction and is inversely correlated with the amount of kinase activity. For each data point, % inhibition is calculated based on uninhibited reaction (without compound) which is considered as 100% activity over no enzyme or substrate controls. Dose response data is then fit using a four parameter logistic equation using Graph-pad Prism 5 software to determine inhibition constant 50 (IC50).

The IC50 is the concentration that gives 50% inhibition.

T1 sequence (P23458 850-1154): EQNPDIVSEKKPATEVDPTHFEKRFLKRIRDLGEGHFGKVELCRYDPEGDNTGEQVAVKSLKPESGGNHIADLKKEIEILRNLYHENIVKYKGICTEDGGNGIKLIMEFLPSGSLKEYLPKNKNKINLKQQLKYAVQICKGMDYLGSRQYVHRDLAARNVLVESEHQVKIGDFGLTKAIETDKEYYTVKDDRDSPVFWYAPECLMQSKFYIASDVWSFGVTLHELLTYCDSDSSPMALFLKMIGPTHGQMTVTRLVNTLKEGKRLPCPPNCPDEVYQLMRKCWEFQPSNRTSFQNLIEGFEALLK

As for `CS(=O)(=O)N1CCC(c2ccnc3cnc4[nH]ccc4c23)C1` (stereo not drawn) [Ex. 20, 9-(1-methylsulfonylpyrrolidin-3-yl)-3H-pyrrolo[3,2-f][1,7]naphthyridine], the 50% inhibitory concentration (IC50) in experiment [1] is 1 to 20 nM; in experiment [2], > 20 nM; in experiment [3], 1 to 20 nM.

For `CC(C)CS(=O)(=O)N1CCCC(c2ncnc3cnc4[nH]ccc4c23)C1` (stereo not drawn) [Ex. 30, 9-[1-(2-Methyl-propane-1-sulfonyl)-piperidin-3-yl]-3H-3,4,6,8-tetraaza-cyclopenta[a]naphthalene], the IC50 in experiment [1], in experiment [2] and in experiment [3] was > 20 nM each time.

Regarding `N#CCS(=O)(=O)N1CCC(c2ccnc3cnc4[nH]ccc4c23)C1` (stereo not drawn) [Ex. 16, 2-[3-(3H-pyrrolo[3,2-f][1,7]naphthyridin-9-yl)pyrrolidin-1-yl]sulfonylacetonitrile], the half-inhibitory concentration (IC50) is 1 to 20 nM in experiment [1], > 20 nM in experiment [2] and 1 to 20 nM in experiment [3].

Regarding `N#C/N=C(\CC(F)(F)F)N1CCC(c2ccnc3cnc4[nH]ccc4c23)C1` (stereo not drawn) [Ex. 45, (E)-[3,3,3-trifluoro-1-[3-(3H-pyrrolo[3,2-f][1,7]naphthyridin-9-yl)pyrrolidin-1-yl]propylidene]cyanamide], the results for the IC50 in experiment [1], in experiment [2] and in experiment [3] were 1 to 20 nM, > 20 nM and 1 to 20 nM, respectively.

Turning to `CC(C)NC(=O)C1CCN(c2ccnc3cnc4[nH]ccc4c23)C1` (stereo not drawn) [Ex. 84, N-isopropyl-1-(3H-pyrrolo[3,2-f][1,7]naphthyridin-9-yl)pyrrolidine-3-carboxamide], the concentration for half-maximal inhibition (IC50) in experiment [1] is 1 to 20 nM; in experiment [2], > 20 nM; in experiment [3], > 20 nM.

`CNC(=O)N1CCCC(c2ccnc3cnc4[nH]ccc4c23)C1` (stereo not drawn) [Ex. 50, N-methyl-3-(3H-pyrrolo[3,2-f][1,7]naphthyridin-9-yl)piperidine-1-carboxamide]: the IC50 in experiment [1], in experiment [2] and in experiment [3] was > 20 nM each time.

In the case of `N#CCC(=O)N1CCC(c2ccnc3cnc4[nH]ccc4c23)C1` (stereo not drawn) [Ex. 14, 3-oxo-3-[3-(3H-pyrrolo[3,2-f][1,7]naphthyridin-9-yl)pyrrolidin-1-yl]propanenitrile], the IC50 in experiment [1] was 1 to 20 nM; in experiment [2], > 20 nM; in experiment [3], 1 to 20 nM.

As for `O=C(C1CC1)N1CCCC(c2ncnc3cnc4[nH]ccc4c23)C1` (stereo not drawn) [Ex. 29, Cyclopropyl-[3-(3H-3,4,6,8-tetraaza-cyclopenta[a]naphthalen-9-yl)-piperidin-1-yl]-methanone], the 50% inhibitory concentration (IC50) in experiment [1], in experiment [2] and in experiment [3] was > 20 nM each time.

As to `CC(C)(C)OC(=O)N1CCCC(c2ncnc3cnc4[nH]ccc4c23)C1` (stereo not drawn) [Comp. 55, 3-(3H-3,4,6,8-Tetraaza-cyclopenta[a]naphthalen-9-yl)-piperidine-1-carboxylic acid tert-butyl ester], the results for the half-inhibitory concentration (IC50) in experiment [1], in experiment [2] and in experiment [3] were 1 to 20 nM, > 20 nM and > 20 nM, respectively.

On to `O=C(NC1CC1)[C@@H]1CCCN(c2ccnc3cnc4[nH]ccc4c23)C1` [Ex. 61B, (3R)-N-cyclopropyl-1-(3H-pyrrolo[3,2-f][1,7]naphthyridin-9-yl)piperidine-3-carboxamide], for which the IC50 in experiment [1], in experiment [2] and in experiment [3] was > 20 nM throughout.

As for `CC(C)S(=O)(=O)N1CCCC(c2ccnc3cnc4[nH]ccc4c23)C1` (stereo not drawn) [Ex. 11, 9-(1-isopropylsulfonyl-3-piperidyl)-3H-pyrrolo[3,2-][1,7]naphthyridine], the IC50 in experiment [1], in experiment [2] and in experiment [3] was > 20 nM each time.

On to `CC(C)/C(=N\C#N)N1CCCC(c2ccnc3cnc4[nH]ccc4c23)C1` (stereo not drawn) [Ex. 43, (E)-[2-methyl-1-[3-(3H-pyrrolo[3,2-f][1,7]naphthyridin-9-yl)-1-piperidyl]propylidene]cyanamide], for which the IC50 in experiment [1] is > 20 nM; in experiment [2], 1 to 20 nM; in experiment [3] it was 1 to 20 nM.

As to `CS(=O)(=O)N1CCCC(c2ccnc3cnc4[nH]ccc4c23)C1` (stereo not drawn) [Ex. 10, 9-(1-methylsulfonyl-3-piperidyl)-3H-pyrrolo[3,2-f][1,7]naphthyridine], the IC50 in experiment [1], in experiment [2] and in experiment [3] was 1 to 20 nM in each case.

For the compound `N#C/N=C(\CC(F)(F)F)N1CCCC(c2ccnc3cnc4[nH]ccc4c23)C1` (stereo not drawn) [Ex. 44, (E)-[3,3,3-trifluoro-1-[3-(3H-pyrrolo[3,2-f][1,7]naphthyridin-9-yl)-1-piperidyl]propylidene]cyanamide], the IC50 in experiment [1] is 1 to 20 nM; in experiment [2] it was > 20 nM; in experiment [3] it was 1 to 20 nM.

As for `CC(C)(C)C(=O)N1CCCC(c2ncnc3cnc4[nH]ccc4c23)C1` (stereo not drawn) [Ex. 28, 2,2-Dimethyl-1-[3-(3H-3,4,6,8-tetraaza-cyclopenta[a]naphthalen-9-yl)-piperidin-1-yl]-propan-1-one], the IC50 in experiment [1] is 1 to 20 nM; in experiment [2] it was > 20 nM; in experiment [3], 1 to 20 nM.

Turning to `CCS(=O)(=O)N1CCCC(c2ccnc3cnc4[nH]ccc4c23)C1` (stereo not drawn) [Ex. 9, 9-(1-ethylsulfonyl-3-piperidyl)-3H-pyrrolo[3,2-f][1,7]naphthyridine], the IC50 in experiment [1], in experiment [2] and in experiment [3] was 1 to 20 nM throughout.

Consider `O=S(=O)(NC1CCCN(c2ccnc3cnc4[nH]ccc4c23)C1)C(F)(F)F` (stereo not drawn) [Ex. 81, 1,1,1-trifluoro-N-[1-(3H-pyrrolo[3,2-f][1,7]naphthyridin-9-yl)-3-piperidyl]methane sulfonamide], for which the IC50 in experiment [1], in experiment [2] and in experiment [3] was 1 to 20 nM each time.

On to `c1cc(N2CCCC(OCC3CC3)C2)c2c(cnc3[nH]ccc32)n1` (stereo not drawn) [Ex. 56, 9-[3-(cyclopropylmethoxy)-1-piperidyl]-3H pyrrolo[3,2f][1,7] naphthyridine], for which the concentration for half-maximal inhibition (IC50) in experiment [1], in experiment [2] and in experiment [3] was 1 to 20 nM in each case.

As for `CC(C)NC(=O)N1CCCC(c2ncnc3cnc4[nH]ccc4c23)C1` (stereo not drawn) [Ex. 32, 3-(3H-3,4,6,8-Tetraaza-cyclopenta[a]naphthalen-9-yl)-piperidine-1-carboxylic acid isopropylamide], the IC50 in experiment [1], in experiment [2] and in experiment [3] was > 20 nM in each case.

For the compound `O=S(=O)(N1CCC(c2ccnc3cnc4[nH]ccc4c23)C1)C(F)(F)F` (stereo not drawn) [Ex. 17, 9-[1-(trifluoromethylsujlfonyl)pyrrolidin-3-yl]-3H-pyrrolo[3,2-f][1,7]naphthyridine], the half-maximal inhibitory concentration (IC50) in experiment [1] is > 20 nM; in experiment [2], > 20 nM; in experiment [3] it was 1 to 20 nM.

With `O=C(CC(F)(F)F)N1CC[C@H](c2ccnc3cnc4[nH]ccc4c23)C1` [Ex. 15A, (R)3,3,3-trifluoro-1-[3-(3H-pyrrolo[3,2-f][1,7]naphthyridin-9-yl)pyrrolidin-1-yl]propan-1-one], the IC50 in experiment [1], in experiment [2] and in experiment [3] was > 20 nM throughout.

In the case of `CC(C)NC(=O)N1CCCC(c2ccnc3cnc4[nH]ccc4c23)C1` (stereo not drawn) [Ex. 13, N-isopropyl-3-(3H-pyrrolo[3,2-f][1,7]naphthyridin-9-yl)piperidine-1-carboxamide], the IC50 in experiment [1], in experiment [2] and in experiment [3] was > 20 nM each time.

For `O=C(CC(F)(F)F)N1CCC[C@@H](c2ncnc3cnc4[nH]ccc4c23)C1` [Ex. 24A, (R)3,3,3-Trifluoro-1-[3-(3H-3,4,6,8-tetraazacyclopenta[a]naphthalen-9-yl)-piperidin-1-yl]-propan-1-one], the half-maximal inhibitory concentration (IC50) in experiment [1], in experiment [2] and in experiment [3] was > 20 nM each time.

Regarding `O=C(NC1CCCN(c2ccnc3cnc4[nH]ccc4c23)C1)C1CC1` (stereo not drawn) [Ex. 74, N-[1-(3H-pyrrolo[3,2-f][1,7]naphthyridin-9-yl)-3-piperidyl] cyclopropanecarbox-amide], the IC50 in experiment [1], in experiment [2] and in experiment [3] was > 20 nM in each case.

As for `c1cc(N2CCC(OCC3CC3)CC2)c2c(cnc3[nH]ccc32)n1` [Ex. 60, 9-[4-(cyclopropylmethoxy)-1-piperidyl]-3H-pyrrolo[3,2-f][1,7]naphthyridine], the IC50 is > 20 nM in experiment [1], 1 to 20 nM in experiment [2] and > 20 nM in experiment [3].
